# In patent US11478474B2, “2-(3′-(hydroxymethyl)-1-methyl-5-((5-(2-methyl-4-(oxetan-3-yl)piperazin-1-yl)pyridin-2-yl)amino)-6-oxo-1,6-dihydro-[3,4′-bipyridin]-2′-yl)-7,7-dimethyl-7,8-dihydro-2H-cyclopenta[4,5]pyrrolo[1,2-a]pyrazin-1(6H)-one as a BTK inhibitor” (HUTCHISON MEDIPHARMA LIMITED, priority 2020, dated 2022):
# Target: BTK recombinant protein (Homo sapiens (Human), UniProt Q06187)
# Experiment: Determination of biochemical BTK (Z'-LYTE kinase assay)
# Conditions: not given
# Source text: Example 2 Determination of Biochemical BTK
# (§1) 1. Reagents and Materials
# BTK recombinant protein: Invitrogen, Cat #PV3363;
# Z′-LYTE® kinase test kit-tyrosine 1 peptide: Invitrogen, Cat #PV3190;
# Z′-LYTE® biochemical assay employs a fluorescence resonance energy transfer (FRET)—based, coupled-enzyme format and is based on the differential sensitivity of phosphorylated and non-phosphorylated peptides to proteolytic cleavage. Both ends of the short peptide substrate are labeled with two fluorescent groups to form a FRET paired combination. In the primary reaction (the Kinase Reaction), the kinase transfers the γ-phosphate of ATP to a single […] residue on the short peptide substrate. In the secondary reaction (the development reaction), the non-phosphorylated short peptides were recognized and cleaved by a site-specific protease (the development reagent). Phosphorylated short peptides can resist such cleavage. Cleavage of short peptides can disrupt the donor (such as coumarin) and receptor fluorophores (fluorescein) on the short peptides, while the phosphorylated short peptides can maintain FRET. The calculation method of the ratio is as follows, and the ratio of the respective emission signals generated by the donor fluorophores emitted (after excitation at 400 nm) to the receptors is calculated. Emission signal ratio=emitted light by coumarin (445 nm)/emitted light by fluorescein (520 nm). If the FRET short peptide is phosphorylated (such as no kinase inhibitor), the emitted light ratio will remain in a lower level. If the FRET short peptide is non-phosphorylated (such as kinase inhibitor), the emitted light ratio will be in a higher level. In this way, the inhibitory effects of different compound inhibitors on BTK kinase activity would be distinguished.
# The experiment were carried out according to the instructions of the Z′-LYTE® kinase test kit-tyrosine 1 peptide. Reagent preparation: 1.33× kinase buffer: 5× kinase buffer was diluted with water to 1.33× kinase buffer; an enzyme solution: the kinase was dissolved in 1.33× kinase buffer with the final working concentration being 3.32 nM; a short peptide solution: a short peptide stock solution (1 mM dissolved in DMSO) was dissolved in 1.33× kinase buffer with the final working concentration being 2 μM; Z′-LYTE Tyr01 phosphorylated short peptide solution, 0.6 μl of stock solution (1 mM dissolved in DMSO) was dissolved in 149.4 μl of 1.33× kinase buffer; an ATP solution: an ATP stock solution (10 mM aqueous solution) was dissolved in 1.33× kinase buffer with the final working concentration being 32 μM; a color-developing solution: color-developing solution B was dissolved in color-developing buffer with the final working concentration being 1× color-developing solution; 4× compound preparation: the compound was diluted in 3-fold gradient concentration to finally obtain 4% DMSO aqueous solution containing different concentrations of the compound, with the final working concentration being 3000, 1000, 333.33, 111.11, 37.04, 12.35, 4.12, 1.37 nM, 8 concentration points in total.
# Specific steps of the experiment: In the experiment, there were three control groups, each with 8 replicate wells, which were C1 100% inhibition group (no ATP), C2 0% inhibition group (with ATP), and C3 100% phosphorylation group, respectively. 2.5 μl of serially diluted compound was added to each well of a 384-well plate, with double replicate wells, and 4% DMSO solution was added to wells C1, C2, and C3. After that, except for wells C3, 2.5 μl of BTK enzyme solution was added to each remaining well, which was left to stand at 4° C. for 30 minutes. After that, except for wells C3, 2.5 μl of short peptide solution was added to each well, and 5 μl of phosphorylated short peptide solution was added to each of wells C3. 2.5 μl of 1.33× kinase buffer was added to each of wells C1 and C3, and 2.5 μl of ATP solution was added to each of the remaining wells. […]
# BTK recombinant protein, sequence (Q06187 whole entry): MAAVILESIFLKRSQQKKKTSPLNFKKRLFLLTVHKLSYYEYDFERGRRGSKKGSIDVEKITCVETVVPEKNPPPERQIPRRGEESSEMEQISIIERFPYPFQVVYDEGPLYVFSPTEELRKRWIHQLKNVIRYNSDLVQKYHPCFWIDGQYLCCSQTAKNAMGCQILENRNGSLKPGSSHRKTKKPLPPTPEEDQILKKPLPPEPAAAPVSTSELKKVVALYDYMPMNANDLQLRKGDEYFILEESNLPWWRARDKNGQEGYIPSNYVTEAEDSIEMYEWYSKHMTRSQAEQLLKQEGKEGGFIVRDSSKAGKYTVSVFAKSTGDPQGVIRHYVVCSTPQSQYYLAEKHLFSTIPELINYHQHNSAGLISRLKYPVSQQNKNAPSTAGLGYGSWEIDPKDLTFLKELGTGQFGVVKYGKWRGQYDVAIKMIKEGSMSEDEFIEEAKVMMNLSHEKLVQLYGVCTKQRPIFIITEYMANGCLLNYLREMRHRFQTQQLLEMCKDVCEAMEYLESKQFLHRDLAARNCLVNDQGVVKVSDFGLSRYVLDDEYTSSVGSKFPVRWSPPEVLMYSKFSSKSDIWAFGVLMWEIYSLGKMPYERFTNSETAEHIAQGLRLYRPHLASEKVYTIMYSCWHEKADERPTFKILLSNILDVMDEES
row,Molecule,IC50 [µM]
1,CC(O)c1c(-c2cc(Nc3ccc(N4CCN(C5COC5)C[C@@H]4C)cn3)c(=O)n(C)c2)ccnc1-n1ccn2c3c(cc2c1=O)CC(C)(C)C3 (mixture of isomers) [Compound 114],> 3
2,"Cn1cc(-c2ccnc(-n3ccn4c5c(cc4c3=O)CC(C)(C)C5)c2CO)cc(N)c1=O [Compound 98, 2-(5-amino-3′-(hydroxymethyl)-1-methyl-6-oxo-1,6-dihydro-[3,4′-bispyridin]-2′-yl)-7,7-dimethyl-7,8-dihydro-2H-cyclopenta[4,5]pyrrolo[1,2-a]pyrazin-1(6H)-one]",1.27
3,C[C@H]1CN(C2COC2)CCN1c1ccc(Nc2cc(-c3ccnc(-n4ccn5c6c(cc5c4=O)CC(C)(C)C6)c3CO)cn(C)c2=O)c(F)c1 [Compound 103],> 3
4,Cn1cc(-c2ccnc(-n3ccn4c5c(cc4c3=O)CC(C)(C)C5)c2CO)cc(NC(=O)C2CCC2)c1=O [Compound 130],0.316
5,Cn1cc(-c2ccnc(-n3ccn4c5c(cc4c3=O)CC(C)(C)C5)c2CO)cc(NC(=O)c2ccccc2)c1=O [Compound 131],2.01
6,COc1ccc(Nc2cc(-c3ccnc(-n4ccn5c6c(cc5c4=O)CCC6)c3CO)cn(C)c2=O)nc1 [Compound 146],0.624
7,Cc1ccc(Nc2cc(-c3ccnc(-n4ccn5c6c(cc5c4=O)CCC6)c3CO)cn(C)c2=O)nn1 [Compound 147],1.56
8,COC1CN(c2ccc(Nc3cc(-c4ccnc(-n5ccn6c7c(cc6c5=O)CCC7)c4CO)cn(C)c3=O)nc2)C1 [Compound 152],0.353
9,"COCc1c(-c2cc(N(C)c3ccc(N4CCN(C5COC5)C[C@@H]4C)cn3)c(=O)n(C)c2)ccnc1-n1ccn2c3c(cc2c1=O)CC(C)(C)C3 [Compound 223, (S)-2-(3′-(methoxymethyl)-1-methyl-5-(methyl(5-(2-methyl-4-(oxetan-3-yl)piperazin-1-yl)pyridin-2-yl)amino)-6-oxo-1,6-dihydro-[3,4′-bispyridin]-2′-yl)-7,7-dimethyl-7,8-dihydro-2H-cyclopenta[4,5]pyrrolo[1,2-a]pyrazin-1(6H)-one]",> 3

# Results, then the molecule that gave them:
row,IC50 [µM],Molecule
1,0.008,"2-(3′-(hydroxymethyl)-5-((5-(2-methoxyethyl)-4-methyl-4,5,6,7-tetrahydropyrazolo[1,5-a]pyrazin-2-yl) amido)-1-methyl-6-oxo-1,6-dihydro-[3,4′-bispyridin]-2′-yl)-7,7-dimethyl-7,8-dihydro-2H-cyclopenta[4,5]pyrrolo[1,2-d][1,2,4]triazin-1(6H)-one optically Pure [Compound 120]"
2,0.003,CC1Cc2cc3c(=O)n(-c4nccc(-c5cc(Nc6ccc(N7CCN(C8COC8)C[C@@H]7C)cn6)c(=O)n(C)c5)c4CO)ccn3c2C1 (mixture of isomers) [Compound 160]
3,< 0.001,[2H]C(O)c1c(-c2cc(Nc3ccc(N4CCN(C5COC5)C[C@@H]4C)cn3)c(=O)n(C([2H])([2H])[2H])c2)ccnc1-n1ccn2c3c(cc2c1=O)CC(C)(C)C3 (some centres unmarked) [Compound 38]
4,0.134,CCC(=O)Nc1cc(-c2ccnc(-n3ccn4c5c(cc4c3=O)CC(C)(C)C5)c2CO)cn(C)c1=O [Compound 88]
5,0.218,CCn1cc(Nc2cc(-c3ccnc(-n4ccn5c6c(cc5c4=O)CCC6)c3CO)cn(C)c2=O)nn1 [Compound 138]
6,0.112,COCCN1CCn2nc(Nc3cc(-c4ccnc(-n5ccn6c7c(cc6c5=O)CCC7)c4CO)cn(C)c3=O)cc2C1 [Compound 148]
7,0.117,COCc1cc(Nc2cc(-c3ccnc(-n4ccn5c6c(cc5c4=O)CCC6)c3CO)cn(C)c2=O)nn1C [Compound 153]
8,0.122,Cn1cc(-c2ccnc(-n3ccn4c5c(cc4c3=O)CCC5)c2CO)cc(Nc2cc3n(n2)CCOC3)c1=O [Compound 155]
9,0.194,Cc1nn(-c2nccc(-c3cc(Nc4ccc(N5CCN(C6COC6)C[C@@H]5C)cn4)c(=O)n(C)c3)c2CO)c(=O)c2cc3c(n12)CCCC3 [Compound 158]
10,0.065,COCCN1CCn2nc(Nc3cc(-c4ccnc(-n5cnn6c7c(cc6c5=O)CCCC7)c4CO)cn(C)c3=O)cc2C1 [Compound 194]
11,0.038,C[C@H]1COCCN1c1cnc(Nc2cc(-c3ccnc(-n4ncn5c6c(cc5c4=O)CC(C)(C)C6)c3CO)cn(C)c2=O)nc1 [Compound 195]
12,0.066,C[C@H]1CN(C2COC2)CCN1c1cnc(Nc2cc(-c3ccnc(-n4ncn5c6c(cc5c4=O)CC(C)(C)C6)c3CO)cn(C)c2=O)nc1 [Compound 197]
13,0.005,C[C@@H]1CN(c2ccc(Nc3cc(-c4ccnc(-n5ccn6c7c(cc6c5=O)CC(C)(C)C7)c4CO)nn(C)c3=O)nc2)[C@@H](C)CN1C1COC1 [Compound 201]

# Target: phosphorylated BTK in Ramos cells (Homo sapiens (Human), UniProt Q06187)
# Experiment: Determination of phosphorylated BTK in Ramos cells (BTK phospho-Y223 HTRF)
# Format: cell-based
# Conditions: anti-human IgM + hydrogen peroxide stimulation
# Description: Determination of Phosphorylated BTK in Ramos Cells
# as §1
# Ramos cells: Ramos cells were purchased from American Standard Biological Collection Center ATCC Cell Bank, PRMI 1640 medium containing L-glutamine, 1.5 g/L of sodium bicarbonate, 2.383 g/L of HEPES solution, 0.11 g/L of sodium pyruvate and 4.5 g/L of glucose was used, added 10% fetal bovine serum FBS, and placed in a 5% CO2, 37° C. cell incubator for normal culture;
# Phosphorylated BTK HTRF detection kit (BTK phospho-Y223 HTRF kit): Cisbio, Cat #63ADK017PEH;
# Ramos cells were starved in PRMI 1640 medium with 1% FBS for 2 hours. The starved Ramos cells were diluted with Hank's balanced salt solution to 5.0×10^6 cells/ml, seeded in a 96-well plate with 20 μL/well (1.0×10^5 cells/well), and cultured in a 5% CO2, 37° C. cell incubator. After culturing for 1 hour, the test compound was diluted with Hank's balanced salt solution in 4-fold gradient to the corresponding concentrations, and then 5 μL/well of the diluted test compound with different concentrations (the final concentrations of the test compound were 3.0, 0.75, 0.188, 0.047, 0.012, 0.0029, 0.0007 and 0.00018 μM, and the final concentration of DMSO was 0.3%, double replicate wells) or 5 μL/well of control solution (1.5% DMSO, 8 replicate wells) were added to 20 μL/well of cell culture system, which incubated together for another hour, then 5 μL/well of a mixed solution of human immunoglobulin M (final concentration was 10 μg/mL) and hydrogen peroxide (final concentration was 3.3 mM) diluted with Hank's balanced salt solution was added to the treating wells for the test compound and the control treating wells for anti-human immunoglobulin M, and 5 μL/well of Hank's balanced salt solution was added to negative control treating wells. The plate was incubated in a 5% CO2, 37° C. cell incubator for 10 minutes.
# 10 μL/well of cell lysis buffer was added to each well of a 96-well plate, which was mixed well and lysed at room temperature for 30 minutes. 16 μL/well of lysis buffer was pipetted to a new 384 well plate, and then added 4 μL/well of phosphorylated BTK antibody, centrifuged (1000 rpm) for 1 minute, then shaken for 1 minute, further centrifuged (1000 rpm) for 1 minute, and finally placed in a constant temperature incubator overnight. Detection was performed on the next day.
# The 384 well plate incubated overnight in the constant temperature incubator was taken out to detect the luminescence signal using the Envision microwell plate reader at the […]. The reading value at 665 nm/615 nm of each well multiplied by 104 was used as the signal value of each well.
# The average signal value of the wells supplemented with the mixed solution of human immunoglobulin M (final concentration was 10 μg/mL) and hydrogen peroxide (final concentration was 3.3 mM) without the test compound was regarded as the high value, and the average signal value of the wells without immunoglobulin M stimulation and without the test compound was regarded as the low value. According to the signal value in each well, the inhibition ratio (%) of each concentration of compounds was calculated, and the 205 model in XL-Fit 5.3 software (ID Business Solutions Limited) was used to obtain an IC50 value.
# The inhibition ratio is calculated as follows: inhibition ratio (%)=100%−{(treating well for the test compound−negative control treating well)/(control treating well for anti-human immunoglobulin M−negative control treating well)}×100%, wherein,
# Treating well for the test compound: represents the signal value of Ramos cells treated with anti-human immunoglobulin M, hydrogen peroxide and the test compound.
# Control treating well for anti-human immunoglobulin M: represents the signal value of Ramos cells treated with anti-human immunoglobulin M, hydrogen peroxide but without the test compound. […]
# phosphorylated BTK in Ramos cells, sequence (Q06187 whole entry): as above
row,Molecule,IC50 [µM]
1,COCC(C)n1cc(Nc2nc(-c3ccnc(-n4ccn5c6c(cc5c4=O)CC(C)(C)C6)c3CO)cn(C)c2=O)nn1 (centres unmarked) [Compound 42],0.341
2,"CN1CCn2nc(Nc3cc(-c4ccnc(-n5ccn6c7c(cc6c5=O)CC(C)(C)C7)c4CO)cn(C)c3=O)cc2C1 [Compound 69, 2-(3′-(hydroxymethyl)-1-methyl-5-((5-methyl-4,5,6,7-tetrahydropyrazolo[1,5-a]pyrazin-2-yl)amino)-6-oxo-1,6-dihydro-[3,4′-bispyridin]-2′-yl)-7,7-dimethyl-7,8-dihydro-2H-cyclopenta[4,5]pyrrolo[1,2-a]pyrazin-1(6H)-one]",0.002

# Continued, values first:
row,IC50 [µM],Molecule
1,0.005,"2-(3′-(hydroxymethyl)-5-((5-(2-methoxyethyl)-4-methyl-4,5,6,7-tetrahydropyrazolo[1,5-a]pyrazin-2-yl) amido)-1-methyl-6-oxo-1,6-dihydro-[3,4′-bispyridin]-2′-yl)-7,7-dimethyl-7,8-dihydro-2H-cyclopenta[4,5]pyrrolo[1,2-d][1,2,4]triazin-1(6H)-one optically Pure [Compound 120]"
2,0.011,CC1Cc2cc3c(=O)n(-c4nccc(-c5cc(Nc6ccc(N7CCN(C8COC8)C[C@@H]7C)cn6)c(=O)n(C)c5)c4CO)ccn3c2C1 (mixture of isomers) [Compound 160]
